This test concerns YAP-TEAD interaction. Briefly: SK-HEP-1 reporter assay (8xTEAD responsive elements driving NanoLuc luciferase). The class given is cell-based. As to conditions: class symbols. In a few lines: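 SK-HEP-1 cells stably carrying 8×TEAD-driven NanoLuc treated in duplicate, 10-point dose from 30 μM final, 0.3% DMSO, 24 h at 37° C. Luminescence after NanoGlo lysis/substrate addition; IC50 calculated from dose response.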
In general terms: A reporter such as luciferase makes a cellular process visible.

Where [1] appears, read: Homo sapiens, SK-HEP1, SK-HEP-1 reporter assay.

Consider 23 compounds from US20240270748A1 (Merck Patent GmbH, priority 2021, published 2024).

What is called IC50 is the midpoint of a concentration-inhibition curve. Read a high IC50 as weaker potency in that assay.

Where a name gives a salt, the structure may show the parent alone. Bounds are passed on as bounds.

As for `Cn1cnc2c1c1cc(C3CC(n4ccnn4)=NO3)ccc1n2-c1ccc(C(F)(F)F)cc1` (centres unmarked) [Example C211, 1-(5-{1-methyl-4-[4-(trifluoromethyl)phenyl]-1H,4H-imidazo[4,5-b]indol-7-yl}-4,5-dihydro-1,2-oxazol-3-yl)-1H-1,2,3-triazole], the IC50 under setting [1] lay in the range of 100 to 10000 nM.
Take `Cn1cnc2c1c1cc(C3CC(n4nccn4)=NO3)ccc1n2-c1ccc(C(F)(F)F)cc1` (centres unmarked) [Example C212, 2-(5-{1-methyl-4-[4-(trifluoromethyl)phenyl]-1H,4H-imidazo[4,5-b]indol-7-yl}-4,5-dihydro-1,2-oxazol-3-yl)-2H-1,2,3-triazole]: the IC50 under setting [1] is 100 to 10000 nM.
For the setting “SK-HEP-1 reporter assay”, `Cn1cnc2c1c1cc(C3CC(Oc4cncnc4)=NO3)ccc1n2-c1ccc(C(F)(F)F)cc1` (centres unmarked) [Example C215, 5-[(5-{1-methyl-4-[4-(trifluoromethyl)phenyl]-1H,4H-imidazo[4,5-b]indol-7-yl}-4,5-dihydro-1,2-oxazol-3-yl)oxy]pyrimidine] had an IC50 of 100 to 10000 nM.
For `Cn1cc2c3cc(C(=O)NC4CCNCC4(F)F)ccc3n(-c3ccc(C(F)(F)F)cc3)c2n1` (centres unmarked) [Example C217, N-(3,3-difluoropiperidin-4-yl)-2-methyl-8-[4-(trifluoromethyl)phenyl]-2H,8H-pyrazolo[3,4-b]indole-5-carboxamide], the IC50 under setting [1] was more than 10000 nM.
The compound `Cn1cc2c3cc(C(=O)NC4(CO)CCNCC4)ccc3n(-c3ccc(C(F)(F)F)cc3)c2n1` [Example C218, N-[4-(hydroxymethyl)piperidin-4-yl]-2-methyl-8-[4-(trifluoromethyl)phenyl]-2H,8H-pyrazolo[3,4-b]indole-5-carboxamide] displayed an IC50 under setting [1] of 100 to 10000 nM.
Under setting [1], `Cn1cc2c3cc(NC(=O)CCN)ccc3n(-c3ccc(C(F)(F)F)cc3)c2n1` [Example C221, 3-amino-N-{2-methyl-8-[4-(trifluoromethyl)phenyl]-2H,8H-pyrazolo[3,4-b]indol-5-yl}propanamide] displayed an IC50 of 100 to 10000 nM.
As to `CNCCC(=O)Nc1ccc2c(c1)c1cn(C)nc1n2-c1ccc(C(F)(F)F)cc1` [Example C222, N-{2-methyl-8-[4-(trifluoromethyl)-phenyl]-2H,8H-pyrazolo[3,4-b]indol-5-yl}-3-(methylamino)propanamide], under setting [1], the IC50 was 100 to 10000 nM.
On to `Cn1cc2c3cc(NC(=O)CC4CCNC4)ccc3n(-c3ccc(C(F)(F)F)cc3)c2n1` (centres unmarked) [Example C223, N-{2-methyl-8-[4-(trifluoromethyl)-phenyl]-2H,8H-pyrazolo[3,4-b]indol-5-yl}-2-(pyrrolidin-3-yl)acetamide], for which the IC50 under setting [1] was in the range of 100 to 10000 nM.
The same measure, in the same setting: next, `Cn1cc2c3cc(NC(=O)CNC4CCNC4)ccc3n(-c3ccc(C(F)(F)F)cc3)c2n1` (centres unmarked) [Example C224, N-{2-methyl-8-[4-(trifluoromethyl)phenyl]-2H,8H-pyrazolo[3,4-b]indol-5-yl}-2-[{pyrrolidin-3-yl)amino]acetamide]: 100 to 10000 nM.
Still for that read-out and setting: next, `Cn1cc2c3cc(C(=O)N[C@@H](CO)c4ccccn4)cnc3n(-c3ccc(C(F)(F)F)cc3)c2n1` [Example C228, N-[(1R)-2-hydroxy-1-(pyridin-2-yl)ethyl]-4-methyl-7-[4-(trifluoromethyl)phenyl]-4,5,7,9-tetraazatricyclo[6.4.0.0^2,6]dodeca-1(8),2,5,9,11-pentaene-11-carboxamide]: 10 to 100 nM; `Cn1cc2c3nc(C(N)=O)ccc3n(-c3ccc(C(F)(F)F)cc3)c2n1` [Example C229, 4-methyl-7-[4-(trifluoromethyl)phenyl]-4,5,7,12-tetraazatricyclo[6.4.0.0^2,6]dodeca-1(8),2,5,9,11-pentaene-11-carboxamide]: 100 to 10000 nM.
With `Cn1nc2c3cc(C4CC(n5ccnn5)=NO4)ccc3n(-c3ccc(C(F)(F)F)cc3)c2n1` (centres unmarked) [Example C232, 1-(5-{2-methyl-4-[4-(trifluoromethyl)phenyl]-3H,4H-[1,2,3]triazolo[4,5-b]indol-7-yl}-4,5-dihydro-1,2-oxazol-3-yl)-1H-1,2,3-triazole], the IC50 under setting [1] is 100 to 10000 nM.
As to `Cn1nc2c3cc(C4CC(Oc5cncnc5)=NO4)ccc3n(-c3ccc(C(F)(F)F)cc3)c2n1` (centres unmarked) [Example C234, 5-[(5-{2-methyl-4-[4-(trifluoromethyl)-phenyl]-2H,4H-[1,2,3]triazolo[4,5-b]indol-7-yl}-4,5-dihydro-1,2-oxazol-3-yl)oxy]pyrimidine], the IC50 under setting [1] is 10 to 100 nM.
Regarding `Cn1cc2c3cc(NC(=O)COC4CNC4)ccc3n(-c3ccc(C(F)(F)F)cc3)c2n1` [Example C243, 2-(azetidin-3-yloxy)-N-{2-methyl-8-[4-(trifluoromethyl)phenyl]-2H,8H-pyrazolo[3,4-b]indol-5-yl}acetamide formate], the IC50 under setting [1] is 100 to 10000 nM.
The same measure, in the same setting: next, `Cn1cc2c3cc(NC(=O)CC4CNC4)ccc3n(-c3ccc(C(F)(F)F)cc3)c2n1` [Example C244, 2-(azetidin-3-yl)-N-{2-methyl-8-[4-(trifluoromethyl)phenyl]-2H,8H-pyrazolo[3,4-b]indol-5-yl}acetamide formate]: 100 to 10000 nM; `CCCn1cc2c3cc(C(=O)N[C@@H](CO)c4ccccn4)ccc3n(-c3ccc(C(F)(F)F)cc3)c2n1` [Example C255, N-[(1R)-2-hydroxy-1-(pyridin-2-yl)ethyl]-2-propyl-8-[4-(trifluoromethyl)phenyl]-2H,8H-pyrazolo[3,4-b]indole-5-carboxamide]: more than 10000 nM.
For the compound `CCn1cc2c3cc(C(=O)N[C@@H](CO)c4ccccn4)ccc3n(-c3ccc(C(F)(F)F)cc3)c2n1` [Example C256, 2-ethyl-N-[(1R)-2-hydroxy-1-(pyridin-2-yl)ethyl]-8-[4-(trifluoromethyl)phenyl]-2H,8H-pyrazolo[3,4-b]indole-5-carboxamide], under setting [1], the IC50 is 1 to 10 nM.
Regarding `Cn1nc2c3cc(C(=O)O)ccc3n(-c3ccc(C(F)(F)F)cc3F)c2n1` [Example C258, 4-[2-fluoro-4-(trifluoromethyl)phenyl]-2-methyl-2H,4H-[1,2,3]triazolo[4,5-b]indole-7-carboxylic acid], the IC50 under setting [1] was 1 to 10 nM.
As for `Cn1cc2c3cc(NC(=O)CC4(O)CNC4)ccc3n(-c3ccc(C(F)(F)F)cc3)c2n1` [Example C259, 2-(3-hydroxyazetidin-3-yl)-N-{2-methyl-8-[4-(trifluoromethyl)phenyl]-2H,8H-pyrazolo[3,4-b]indol-5-yl}acetamide Formate], the IC50 under setting [1] lay in the range of 100 to 10000 nM.
Under setting [1], `C[C@H](NC(=O)c1ccc2c(c1)c1cn(C)nc1n2-c1ccc(C(F)(F)F)cc1)c1ccnc(N)c1` [Example C264] came in with an IC50 of 100 to 10000 nM.
Still for that read-out and setting: the value for `C[C@H](NC(=O)c1ccc2c(c1)c1cn(C)nc1n2-c1ccc(C(F)(F)F)cc1)c1ccc(Cl)nc1` [Example C265, N-[(1S)-1-(6-chloropyridin-3-yl)ethyl]-2-methyl-8-[4-(trifluoromethyl)phenyl]-2H,8H-pyrazolo[3,4-b]indole-5-carboxamide] was 10 to 100 nM; that for `Cn1cc2c3cc(C(=O)NC(CO)c4nncn4C)ccc3n(-c3ccc(C(F)(F)F)cc3)c2n1` (centres unmarked) [Example C267, N-[2-hydroxy-1-(4-methyl-4H-1,2,4-triazol-3-yl)ethyl]-2-methyl-8-[4-(trifluoromethyl)phenyl]-2H,8H-pyrazolo[3,4-b]indole-5-carboxamide] was 100 to 10000 nM; that for `Cc1noc(C(CO)NC(=O)c2ccc3c(c2)c2cn(C)nc2n3-c2ccc(C(F)(F)F)cc2)n1` (centres unmarked) [Example C268, N-[2-hydroxy-1-(3-methyl-1,2,4-oxadiazol-5-yl)ethyl]-2-methyl-8-[4-(trifluoromethyl)phenyl]-2H,8H-pyrazolo[3,4-b]indole-5-carboxamide] was 100 to 10000 nM.
